The values below come from patent US10184129B2, “Method and compositions to promote plant growth in metal contaminated environments” (The Regents of the University of California, priority 2011, dated 2019).

For the test, the system named is Col-0 wt and als7-1/swa2-2 roots. Put plainly: Root growth of seedlings in a hydroponic environment supplemented with AlCl3 (pH 4.2). It counts as in vivo, Arabidopsis. As to conditions: for increase in root growth: pH 4.2. Here is the method:
Seedlings of Col-0 wt and als7-1/swa2-2 were grown for 7 d hydroponically either in the absence or presence 25 μM AlCl3 (pH 4.2), after which root tissue was collected for analysis of spermine content by HPLC. […] Seedlings of Col-0 wt and als7-1/swa2-2 were grown in a hydroponic environment either in the absence or presence of 25 μM AlCl3 (pH 4.2) with or without 25 μM spermine. After 7 d growth, root length was measured for all treatments, with mean±SE values determined from 30 roots of each. […] Seedlings of Col-0 wt were grown either in the absence or presence of 1.5 mM DEMO in a hydroponic environment supplemented with increasing concentrations of AlCl3 (pH 4.2). After 7 d, root length was measured for all treatments, with mean±SE values determined from 30 roots of each. […] Seedlings of Col-0 wt were grown hydroponically either in the absence or presence of 25 μM spermine for 5 d after which the samples were transferred to a solution with or without 25 μM AlCl3 (pH 4.2) containing either 0 or 25 μM spermine. Following 2 d of growth, root tissue was collected and treated for measurement of Al content by ICP-OES.
For all growth experiments performed, Col-0 wt and mutant seeds were surface-sterilized with household bleach and cold stratified for 4 d at 4° C. in the dark for synchronization of germination. Seeds were subsequently suspended in 0.15% (w/v) agarose and for planting on either soaked gel plates or hydroponic plates. Further description of the growth experiments can be found in Larsen, P. B., Geisler, M. J. B., Jones, C. A., Williams, K. M., and Cancel, J. D. (2005), ALS3 encodes a phloem-localized ABC transporter-like protein that is required for aluminum tolerance in Arabidopsis. Plant J. 41, 353-63. All growth analyses were done in a Percival 136LLVL plant growth chamber under a 24 hr light cycle at 20° C. Adult plants were grown in soil under a 24 hr light cycle at 20° C. in a plant growth room supplemented with Sylvania Gro-Lite® fluorescent bulbs.

Structures are written as SMILES. Entries after “also recorded” stand apart in the source; their conditions may differ. Where only a bound is given, the exact number is not on record here.

For the compound `NCCCNCCCCNCCCN` [spermine], the “root growth in the presence of Al (in words)” value is, setting by setting: (Col-0 wt and als7-1/swa2-2 seedlings, 25 μM spermine, 25 μM AlCl3 pH 4.2, hydroponic, 7 d) “increases root growth; also recorded: substantial increase in root growth”; (als7-1/swa2-2, spermine added, 25 or 50 μM AlCl3, hydroponic) “almost full restoration”. The “increase in root growth” value by setting is: (Col-0 wt, 25 μM spermine, 25 or 50 μM AlCl3, hydroponic, 7 d) no less than 6 fold; (als7-1/swa2-2, 25 μM spermine, 25 or 50 μM AlCl3, hydroponic, 7 d) no less than 6 fold. Moreover, the “root growth compared to untreated controls (in words)” value (Col-0 wt, spermine added, 25 or 50 μM AlCl3, hydroponic) is “remained significantly inhibited”.
